Data as given in patent US10052320B2, “Substituted quinoxalines as FGFR kinase inhibitors” (ASTEX THERAPEUTICS LIMITED, priority 2011, dated 2018).
Where two headings read alike, the source gives them in different places.

Legend:
[1] = target: FGFR2 (h) (Homo sapiens, UniProt P21802); assay: FGFR2 (enzymatic assay), TR-FRET; format: biochemical; details: read-out: FGFR 2 pIC50 (converted)
Method: In a final reaction volume of 30 μL, FGFR2 (h) (150 ng/ml) was incubated with 50 mM HEPES pH 7.5, 6 mM MnCl2, 1 mM DTT, 0.1 mM Na3VO4, 0.01% Triton-X-100, 500 nM Btn-Flt3 and 0.4 μM ATP in the presence of compound (1% DMSO final). […] Time-Resolved Fluorescence Resonance Energy Transfer (TR-FRET) signal (ex340 nm. Em 620 nm, em 655 nm) was measured afterwards and results are expressed in (Relative Fluorescence Units).

[2] = target: FGFR3 (h) (Homo sapiens, UniProt P22607); assay: FGFR3 (enzymatic assay), TR-FRET; format: biochemical; details: read-out: FGFR 3 pIC50 (converted)
FGFR3 (h), sequence (P22607 23-806): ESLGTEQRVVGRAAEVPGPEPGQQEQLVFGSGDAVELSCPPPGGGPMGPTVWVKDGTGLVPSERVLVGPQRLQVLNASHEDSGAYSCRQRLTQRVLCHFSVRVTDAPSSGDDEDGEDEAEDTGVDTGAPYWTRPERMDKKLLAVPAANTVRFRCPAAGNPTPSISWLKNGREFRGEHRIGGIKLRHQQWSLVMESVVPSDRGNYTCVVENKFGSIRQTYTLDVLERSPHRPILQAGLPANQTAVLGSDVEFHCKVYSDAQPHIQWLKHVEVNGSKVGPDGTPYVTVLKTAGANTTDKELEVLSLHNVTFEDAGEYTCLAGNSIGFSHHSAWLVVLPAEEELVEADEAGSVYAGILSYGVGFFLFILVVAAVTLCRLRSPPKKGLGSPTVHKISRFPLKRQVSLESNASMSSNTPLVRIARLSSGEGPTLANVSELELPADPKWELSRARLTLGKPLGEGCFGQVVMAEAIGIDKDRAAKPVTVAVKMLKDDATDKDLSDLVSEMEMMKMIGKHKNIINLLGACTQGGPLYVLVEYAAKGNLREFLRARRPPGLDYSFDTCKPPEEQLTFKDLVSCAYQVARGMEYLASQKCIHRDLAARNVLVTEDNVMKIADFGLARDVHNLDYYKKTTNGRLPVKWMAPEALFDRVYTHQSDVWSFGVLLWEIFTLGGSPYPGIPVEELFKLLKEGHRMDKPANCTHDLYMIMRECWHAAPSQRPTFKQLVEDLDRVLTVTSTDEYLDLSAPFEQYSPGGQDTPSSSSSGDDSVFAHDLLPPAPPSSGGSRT
Method: In a final reaction volume of 30 μL, FGFR3 (h) (40 ng/ml) was incubated with 50 mM HEPES pH 7.5, 6 mM MnCl2, 1 mM DTT, 0.1 mM Na3VO4, 0.01% Triton-X-100, 500 nM Btn-Flt3 and 25 μM ATP in the presence of compound (1% DMSO final). […] Time-Resolved Fluorescence Resonance Energy Transfer (TR-FRET) signal (ex340 nm. Em 620 nm, em 655 nm) was measured afterwards and results are expressed in RFU (Relative Fluorescence Units).

[3] = target: KDR (h) (VEGFR2) (Homo sapiens, UniProt P35968); assay: KDR (VEGFR2) (enzymatic assay), TR-FRET; format: biochemical
KDR (h) (VEGFR2), sequence (P35968 20-1356): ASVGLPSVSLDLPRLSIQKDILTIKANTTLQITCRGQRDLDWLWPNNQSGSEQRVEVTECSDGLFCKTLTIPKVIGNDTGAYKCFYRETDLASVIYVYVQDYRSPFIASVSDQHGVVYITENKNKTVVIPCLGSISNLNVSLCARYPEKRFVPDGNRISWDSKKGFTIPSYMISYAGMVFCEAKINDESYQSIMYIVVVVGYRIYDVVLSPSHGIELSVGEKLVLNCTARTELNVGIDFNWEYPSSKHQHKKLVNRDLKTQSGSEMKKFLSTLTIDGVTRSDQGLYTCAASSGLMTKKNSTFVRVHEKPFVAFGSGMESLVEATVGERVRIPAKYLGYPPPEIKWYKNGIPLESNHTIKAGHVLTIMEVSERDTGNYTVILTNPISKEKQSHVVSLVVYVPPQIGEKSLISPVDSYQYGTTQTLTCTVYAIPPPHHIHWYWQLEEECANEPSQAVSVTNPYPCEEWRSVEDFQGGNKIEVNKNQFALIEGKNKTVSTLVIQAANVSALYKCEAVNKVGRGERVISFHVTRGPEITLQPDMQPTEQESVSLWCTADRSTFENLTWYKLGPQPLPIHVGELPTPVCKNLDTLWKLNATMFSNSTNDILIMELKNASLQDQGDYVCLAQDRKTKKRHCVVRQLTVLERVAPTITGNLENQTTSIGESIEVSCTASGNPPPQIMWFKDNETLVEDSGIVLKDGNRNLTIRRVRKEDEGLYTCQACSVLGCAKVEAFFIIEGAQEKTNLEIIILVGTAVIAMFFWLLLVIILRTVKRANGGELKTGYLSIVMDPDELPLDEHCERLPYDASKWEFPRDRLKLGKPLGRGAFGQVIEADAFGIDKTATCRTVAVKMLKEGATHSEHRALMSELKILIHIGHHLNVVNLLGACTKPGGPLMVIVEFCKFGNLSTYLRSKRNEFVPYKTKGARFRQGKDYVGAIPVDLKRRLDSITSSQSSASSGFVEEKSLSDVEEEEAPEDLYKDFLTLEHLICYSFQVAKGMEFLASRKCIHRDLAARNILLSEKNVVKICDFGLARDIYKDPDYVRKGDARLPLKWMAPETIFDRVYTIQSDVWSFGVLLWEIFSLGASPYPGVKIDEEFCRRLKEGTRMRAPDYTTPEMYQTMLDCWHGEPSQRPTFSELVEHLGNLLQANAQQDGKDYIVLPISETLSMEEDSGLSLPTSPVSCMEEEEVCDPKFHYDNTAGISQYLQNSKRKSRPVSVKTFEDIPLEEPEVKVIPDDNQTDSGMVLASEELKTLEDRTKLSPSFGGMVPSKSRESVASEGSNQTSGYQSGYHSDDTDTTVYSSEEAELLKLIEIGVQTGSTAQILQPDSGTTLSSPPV
Method: KDR (VEGFR2) (Enzymatic Assay)
In a final reaction volume of 30 μL, KDR (h) (150 ng/ml) was incubated with 50 mM HEPES pH 7.5, 6 mM MnCl2, 1 mM DTT, 0.1 mM Na3VO4, 0.01% Triton-X-100, 500 nM Btn-Flt3 and 3 μM ATP in the presence of compound (1% DMSO final). After incubation for 120 minutes at room temperature the reaction was stopped with 2.27 nM EU-anti P-Tyr, 7 mM EDTA, 31.25 nM SA-XL-665 and 0.02% BSA which was present for 60 minutes at room temperature. Time-Resolved Fluorescence Resonance Energy Transfer (TR-FRET) signal (ex340 nm. Em 620 nm, em 655 nm) was measured afterwards and results are expressed in RFU (Relative Fluorescence Units).

[4] = target: Ba/F3-FGFR3-transfected cells (Homo sapiens, UniProt P22607); assay: Ba/F3-FGFR3 (minus IL3) cellular proliferation assay, Alamar Blue; format: cell-based; details: for BAF3-FGFR 3 (MIN IL3) 384 well pIC50: minus IL3, 384 well; for BAF3-FGFR 3 (MIN IL3) 96 well pIC50: minus IL3, 96 well
Method: Ba/F3-FGFR3 (Minus IL3 or Plus IL3) (Cellular Proliferation Assay)
Cells were put in an incubator at 37° C. and 5% CO2. After 24 hours, 10 μl of Alamar Blue solution (0.5 mM K3Fe(CN)6, 0.5 mM KaFe(CN)6, 0.15 mM Resazurin and 100 mM Phosphate Buffer) was added to the wells, incubated for 4 hours at 37° C. and 5% CO2 before RFU's (Relative Fluorescence Units) (ex. 540 nm., em. 590 nm.) were measured in a flurorescence plate reader. […]
(§1) In a 96 well plate, 180 μl cell culture medium (phenol red free RPMI-1640, 10% FBS, 2 mM L-Glutamine and 50 μg/ml Gentamycin) containing 10000 cells per well of Ba/F3-FGFR3-transfected cells were pipette and 20 μl of compound dilution in DMSO was added. Cells were put in an incubator at 37° C. and 5% CO2. After 24 hours, 40 μl of Alamar Blue solution (0.5 mM K3Fe(CN)6, 0.5 mM KaFe(CN)6, 0.15 mM Resazurin and 100 mM Phosphate Buffer) was added to the wells, incubated for 4 hours at 37° C. and 5% CO2 before RFU's (Relative Fluorescence Units) (ex. 540 nm., em. 590 nm.) were measured in a flurorescence plate reader.

[5] = target: Ba/F3-KDR-transfected cells (Homo sapiens, UniProt P35968); assay: Ba/F3-KDR (minus IL3) cellular proliferation assay, Alamar Blue; format: cell-based
Ba/F3-KDR-transfected cells, sequence (P35968 whole entry, change not shown): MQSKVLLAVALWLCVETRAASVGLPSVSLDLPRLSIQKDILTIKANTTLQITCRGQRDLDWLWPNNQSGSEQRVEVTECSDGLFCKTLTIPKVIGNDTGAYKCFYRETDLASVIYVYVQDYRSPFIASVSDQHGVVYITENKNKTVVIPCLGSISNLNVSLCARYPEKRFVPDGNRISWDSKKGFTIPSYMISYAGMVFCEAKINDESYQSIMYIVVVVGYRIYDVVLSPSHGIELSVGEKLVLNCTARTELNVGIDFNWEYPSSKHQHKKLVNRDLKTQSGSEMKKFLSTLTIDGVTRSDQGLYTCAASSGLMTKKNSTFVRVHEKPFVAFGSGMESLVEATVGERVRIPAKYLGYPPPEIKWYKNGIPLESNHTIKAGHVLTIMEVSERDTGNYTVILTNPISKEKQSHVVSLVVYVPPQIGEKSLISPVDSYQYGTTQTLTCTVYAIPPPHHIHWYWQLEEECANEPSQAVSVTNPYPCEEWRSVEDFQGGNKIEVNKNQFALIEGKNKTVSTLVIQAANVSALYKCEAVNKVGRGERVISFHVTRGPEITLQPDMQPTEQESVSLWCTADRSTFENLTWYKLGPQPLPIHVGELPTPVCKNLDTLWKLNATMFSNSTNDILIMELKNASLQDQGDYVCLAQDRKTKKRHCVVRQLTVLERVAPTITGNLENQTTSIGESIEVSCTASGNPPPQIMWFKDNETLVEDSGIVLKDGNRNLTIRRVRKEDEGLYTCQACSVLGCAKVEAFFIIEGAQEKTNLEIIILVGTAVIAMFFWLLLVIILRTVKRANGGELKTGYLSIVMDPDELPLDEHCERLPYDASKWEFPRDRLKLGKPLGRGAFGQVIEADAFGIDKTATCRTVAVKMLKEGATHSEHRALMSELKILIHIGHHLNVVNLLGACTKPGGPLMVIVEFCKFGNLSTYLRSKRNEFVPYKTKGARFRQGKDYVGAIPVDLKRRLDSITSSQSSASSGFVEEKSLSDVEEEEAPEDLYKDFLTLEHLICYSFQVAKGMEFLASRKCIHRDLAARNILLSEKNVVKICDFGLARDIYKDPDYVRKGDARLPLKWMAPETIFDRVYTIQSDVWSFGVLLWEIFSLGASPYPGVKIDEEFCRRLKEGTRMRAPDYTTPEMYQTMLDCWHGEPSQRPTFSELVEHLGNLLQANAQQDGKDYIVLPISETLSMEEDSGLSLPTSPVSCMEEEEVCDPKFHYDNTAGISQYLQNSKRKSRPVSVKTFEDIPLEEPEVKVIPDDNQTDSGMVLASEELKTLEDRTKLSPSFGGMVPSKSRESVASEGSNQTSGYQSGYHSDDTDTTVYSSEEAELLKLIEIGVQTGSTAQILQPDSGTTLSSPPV
Method: Ba/F3-KDR (Minus IL3 or Plus IL3) (Cellular Proliferation Assay)
as §1, with “a 384” for “a 96”, “plate, 100 nl of compound dilution in DMSO was sprayed before adding 50” for “plate, 180”, “containing 20000” for “containing 10000”, “of Ba/F3-KDR-transfected cells.” for “of Ba/F3-FGFR3-transfected cells were pipette and 20 μl of compound dilution in DMSO was added.”, “hours, 10” for “hours, 40”
As a counterscreen the same experiment was performed in the presence of 10 ng/ml murine IL3.
as §1, with “Ba/F3-KDR-transfected” for “Ba/F3-FGFR3-transfected”, “CO2” for “CO2 before”

[6] = target: Ba/F3-FGFR4-transfected cells (Homo sapiens, UniProt P22455); assay: Ba/F3-FGFR4 cellular proliferation assay, Alamar Blue; format: cell-based
Ba/F3-FGFR4-transfected cells, sequence (P22455 whole entry, change not shown): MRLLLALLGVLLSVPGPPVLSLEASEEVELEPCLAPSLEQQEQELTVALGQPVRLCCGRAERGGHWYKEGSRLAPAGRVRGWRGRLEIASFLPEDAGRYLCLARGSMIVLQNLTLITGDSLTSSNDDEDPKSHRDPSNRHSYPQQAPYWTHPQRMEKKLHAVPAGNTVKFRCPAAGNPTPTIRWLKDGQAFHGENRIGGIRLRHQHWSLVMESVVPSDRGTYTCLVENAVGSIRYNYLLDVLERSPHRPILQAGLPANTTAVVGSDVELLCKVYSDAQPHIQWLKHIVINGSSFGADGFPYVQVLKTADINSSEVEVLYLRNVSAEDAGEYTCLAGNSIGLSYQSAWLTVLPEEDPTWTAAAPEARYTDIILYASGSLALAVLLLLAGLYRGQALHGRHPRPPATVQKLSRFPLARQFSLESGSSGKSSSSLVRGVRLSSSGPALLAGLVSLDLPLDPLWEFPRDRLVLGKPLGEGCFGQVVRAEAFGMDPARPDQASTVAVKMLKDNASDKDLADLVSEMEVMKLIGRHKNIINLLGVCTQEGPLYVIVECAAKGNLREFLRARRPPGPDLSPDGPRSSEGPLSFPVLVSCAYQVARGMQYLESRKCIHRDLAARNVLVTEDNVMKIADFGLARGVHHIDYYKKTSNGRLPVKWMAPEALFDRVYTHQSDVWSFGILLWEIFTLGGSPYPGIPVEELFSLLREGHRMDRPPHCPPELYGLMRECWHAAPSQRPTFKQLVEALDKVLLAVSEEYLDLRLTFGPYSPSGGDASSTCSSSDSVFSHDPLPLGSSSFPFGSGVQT
Method: Ba/F3-FGFR4 (Cellular Proliferation Assay)
as §1, with “a 384” for “a 96”, “plate, 100 nl of compound dilution in DMSO was sprayed before adding 50” for “plate, 180”, “containing 20000” for “containing 10000”, “of Ba/F3-FGFR4-transfected cells.” for “of Ba/F3-FGFR3-transfected cells were pipette and 20 μl of compound dilution in DMSO was added.”, “hours, 10” for “hours, 40”

FGFR2 (h), sequence (P21802 22-821): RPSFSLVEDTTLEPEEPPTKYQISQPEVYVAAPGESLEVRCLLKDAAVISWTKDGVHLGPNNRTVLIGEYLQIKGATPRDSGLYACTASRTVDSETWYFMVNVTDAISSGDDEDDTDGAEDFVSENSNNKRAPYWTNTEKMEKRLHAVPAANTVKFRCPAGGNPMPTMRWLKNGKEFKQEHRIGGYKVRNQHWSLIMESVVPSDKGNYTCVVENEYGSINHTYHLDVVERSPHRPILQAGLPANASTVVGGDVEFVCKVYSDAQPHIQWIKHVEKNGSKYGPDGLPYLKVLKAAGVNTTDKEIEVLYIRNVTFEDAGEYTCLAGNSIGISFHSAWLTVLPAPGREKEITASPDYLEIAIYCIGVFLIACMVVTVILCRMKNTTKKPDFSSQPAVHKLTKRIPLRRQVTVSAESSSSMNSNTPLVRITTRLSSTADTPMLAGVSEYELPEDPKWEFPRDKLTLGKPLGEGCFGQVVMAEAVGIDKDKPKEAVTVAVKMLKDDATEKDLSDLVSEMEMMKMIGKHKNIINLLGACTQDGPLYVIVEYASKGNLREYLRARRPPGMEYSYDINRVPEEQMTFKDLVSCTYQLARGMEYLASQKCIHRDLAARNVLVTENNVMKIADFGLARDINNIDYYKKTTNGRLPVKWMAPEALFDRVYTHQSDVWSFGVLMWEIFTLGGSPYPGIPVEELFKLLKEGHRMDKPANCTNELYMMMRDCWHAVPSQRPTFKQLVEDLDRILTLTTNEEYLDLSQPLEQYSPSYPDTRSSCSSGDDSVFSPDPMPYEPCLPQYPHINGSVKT

Compound: COc1cc(OC)cc(N(CCCNC(C)C)c2ccc3ncc(-c4ccnc(NC(=O)OC(C)(C)C)c4)nc3c2)c1 [Compound 137]
- IC50 [1]: 8.32 nM
- IC50 [2]: 8.51 nM
- IC50 [3]: 275 nM
- BAF3-FGFR 3 (MIN IL3) 384 well pIC50 [4]: ~5.83
- BAF3-KDR (MIN IL3) 384 well pIC50 ([5]; minus IL3): 5.67
- BAF3-FGFR4 pIC50 [6]: 6.1

Compound: COc1cc(OC)cc(N(CC#Cc2ncccc2OC)c2ccc3ncc(-c4cccnc4)nc3c2)c1 [Compound 183]
- IC50 [1]: 81.3 nM
- IC50 [2]: 162 nM
- IC50 [3]: > 1000 nM
- BAF3-FGFR 3 (MIN IL3) 384 well pIC50 [4]: 7.1
- BAF3-KDR (MIN IL3) 384 well pIC50 ([5]; minus IL3): <5
- BAF3-FGFR4 pIC50 [6]: ~6.5

Compound: COC(=O)C1CCCN1c1cnc2ccc(N(CCO)c3cc(OC)cc(OC)c3)cc2n1 (stereo not drawn) [Compound 172]
- IC50 [1]: 145 nM
- IC50 [2]: 87.1 nM
- IC50 [3]: > 1000 nM
- BAF3-FGFR 3 (MIN IL3) 384 well pIC50 [4]: 5.36
- BAF3-KDR (MIN IL3) 384 well pIC50 ([5]; minus IL3): <5
- BAF3-FGFR4 pIC50 [6]: 5.1

Compound: COc1cc(OC)cc(N(CC2CC2)c2ccc3ncc(C#Cc4cncn4C)nc3c2)c1 [Compound 22]
- IC50 [1]: 95.5 nM
- IC50 [2]: 34.7 nM
- IC50 [3]: 1660 nM
- BAF3-FGFR 3 (MIN IL3) 96 well pIC50 [4]: 5.04
- BAF3-FGFR 3 (MIN IL3) 384 well pIC50 [4]: <5.52
- BAF3-KDR (MIN IL3) 384 well pIC50 ([5]; minus IL3, 384 well): <5
- BAF3-FGFR4 pIC50 ([6]; 384 well): <5

Compound: COc1cc(OC)cc(N(CCO)c2ccc3ncc(-c4ccc(N5CCNCC5)cc4)nc3c2)c1 [Compound 166]
- IC50 [1]: 3.63 nM
- IC50 [2]: 0.832 nM
- IC50 [3]: 23.4 nM
- BAF3-FGFR 3 (MIN IL3) 384 well pIC50 [4]: ~6.1
- BAF3-KDR (MIN IL3) 384 well pIC50 ([5]; minus IL3): 5.55
- BAF3-FGFR4 pIC50 [6]: 6.7

Compound: COc1cc(OC)cc(N(CCNC(C)C)c2ccc3ncc(C(=O)NCCN4CCOCC4)nc3c2)c1 [Compound 160]
- IC50 [1]: 57.5 nM
- IC50 [2]: 91.2 nM
- IC50 [3]: > 1000 nM
- BAF3-KDR (MIN IL3) 384 well pIC50 ([5]; minus IL3): <5
- BAF3-FGFR4 pIC50 [6]: 5.8

Compound: COc1cc(OC)cc(N(CCN2CCOCC2)c2ccc3ncc(-c4ccc(NC(=O)N5CCOCC5)nc4)nc3c2)c1 [Compound 35]
- IC50 [1]: 26.3 nM
- IC50 [2]: 10 nM
- IC50 [3]: 229 nM
- BAF3-FGFR 3 (MIN IL3) 384 well pIC50 [4]: 6.19
- BAF3-KDR (MIN IL3) 384 well pIC50 ([5]; minus IL3): 5.11
- BAF3-FGFR4 pIC50 [6]: 6.0

Compound: COc1cc(OC)cc(N(CC2CC2)c2ccc3ncc(C(=O)Nc4cncn4C)nc3c2)c1 [Compound 27]
- IC50 [1]: ~4170 nM
- IC50 [2]: 2630 nM
- IC50 [3]: > 10000 nM
- BAF3-FGFR 3 (MIN IL3) 96 well pIC50 [4]: <5
- BAF3-FGFR 3 (MIN IL3) 384 well pIC50 [4]: <5
- BAF3-KDR (MIN IL3) 384 well pIC50 ([5]; minus IL3): <5
- BAF3-FGFR4 pIC50 [6]: <5

Compound: COc1cc(OC)cc(N(CC2CC2)c2ccc3ncc(N4CCN(CCO)CC4)nc3c2)c1 [Compound 49]
- IC50 [1]: 398 nM
- IC50 [2]: 126 nM
- IC50 [3]: 3980 nM
- BAF3-FGFR 3 (MIN IL3) 96 well pIC50 [4]: 5.5
- BAF3-FGFR 3 (MIN IL3) 384 well pIC50 [4]: <5
- BAF3-KDR (MIN IL3) 384 well pIC50 ([5]; minus IL3): <5
- BAF3-FGFR4 pIC50 [6]: <5

Compound: COc1cc(OC)cc(N(CCO)c2ccc3ncc(-c4ccnc(C(=O)NCCCCCN)c4)nc3c2)c1 [Compound 138]
- IC50 [1]: ~31.6 nM
- IC50 [2]: 16.2 nM
- IC50 [3]: 759 nM
- BAF3-FGFR 3 (MIN IL3) 384 well pIC50 [4]: 5.04
- BAF3-KDR (MIN IL3) 384 well pIC50 ([5]; minus IL3): <5
- BAF3-FGFR4 pIC50 [6]: 5.1

Compound: COc1cc(OC)cc(N(CCO)c2ccc3ncc(-c4ccnc(C(=O)NCCCCCO)c4)nc3c2)c1 [Compound 139]
- IC50 [1]: 39.8 nM
- IC50 [2]: 11.5 nM
- IC50 [3]: 692 nM
- BAF3-FGFR 3 (MIN IL3) 384 well pIC50 [4]: 5.72
- BAF3-KDR (MIN IL3) 384 well pIC50 ([5]; minus IL3): <5
- BAF3-FGFR4 pIC50 [6]: <5

Compound: COc1cc(OC)cc(N(CCCNC(C)C)c2ccc3ncc(-c4ccnc(N)c4)nc3c2)c1 [Compound 143]
- IC50 [1]: 3.39 nM
- IC50 [2]: 2.51 nM
- IC50 [3]: 52.5 nM
- BAF3-FGFR 3 (MIN IL3) 384 well pIC50 [4]: 6.4
- BAF3-KDR (MIN IL3) 384 well pIC50 ([5]; minus IL3): 5.33
- BAF3-FGFR4 pIC50 [6]: 6.9

Compound: COc1cc(OC)cc(N(CC2CC2)c2ccc3ncc(N4CCOCC4)nc3c2)c1 [Compound 63]
- IC50 [1]: 741 nM
- IC50 [2]: 138 nM
- IC50 [3]: 6610 nM
- BAF3-FGFR 3 (MIN IL3) 96 well pIC50 [4]: <5
- BAF3-FGFR 3 (MIN IL3) 384 well pIC50 [4]: <5
- BAF3-KDR (MIN IL3) 384 well pIC50 ([5]; minus IL3, 384 well): <5
- BAF3-FGFR4 pIC50 ([6]; 384 well): <5

Compound: COc1cc(OC)cc(N(CC2CC2)c2ccc3ncc(-c4ccnc(N5CCOCC5)c4)nc3c2)c1 [Compound 90]
- IC50 [1]: 676 nM
- IC50 [2]: 282 nM
- IC50 [3]: > 10000 nM
- BAF3-FGFR 3 (MIN IL3) 96 well pIC50 [4]: 5.09

Compound: COc1cc(OC)cc(N(CCNC(C)C)c2ccc3ncc(-c4ccnn4C4CCCCO4)nc3c2)c1 (stereo not drawn) [Compound 188]
- IC50 [1]: 7.41 nM
- IC50 [2]: 17.8 nM
- BAF3-FGFR 3 (MIN IL3) 384 well pIC50 [4]: 6.17
- BAF3-KDR (MIN IL3) 384 well pIC50 ([5]; minus IL3): 5.14
- BAF3-FGFR4 pIC50 [6]: 6.05
